Reference: ChEMBL document CHEMBL1201862, “PubChem BioAssay data set” (2004)
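In this assay, cells in 96-well plates receive the compound at five concentrations for 48 hours. Endpoints are linearly interpolated between the surrounding concentrations. GI50 = concentration required for 50% inhibition of growth.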 Calls of active or inactive are those of the source. Rule as the data show it: active = GI50 up to about 1.1 µM and inactive = higher. Positions of bridges follow the written chain, without caps; N, C: chain ends. Non-standard residues stand in square brackets, D forms with d. Residues, ends and D or L forms follow the SMILES beside them. ξ: configuration not given here. *: point of attachment. X28 = O=C(/C=C/C=C/C=C/C=C/C=C/C(=O)*)NC1=C(O)CCC1=O; Pro(4R-Me) = C[C@H]1CN[C@H](C(=O)O)C1; NMeA = CN[C@@H](C)C(=O)O; ξF = NC(Cc1ccccc1)C(=O)O; ξA = CC(N)C(=O)O

How the values were obtained:
Assay in all cases: NCI anticancer screen, dose series, 48 h
Hs-578T = tested on: Hs-578T
HOP-62 = tested on: HOP-62
LOX IMVI = tested on: LOX IMVI
ACHN = tested on: ACHN
UACC-257 = tested on: UACC-257
OVCAR-3 = tested on: OVCAR-3
Malme-3M = tested on: Malme-3M
RPMI-8226 = tested on: RPMI-8226
CAKI-1 = tested on: CAKI-1
NCI-H23 = tested on: NCI-H23
RXF 393 = tested on: RXF 393
HCT-116 = tested on: HCT-116
SNB-75 = tested on: SNB-75
SF-295 = tested on: SF-295
KM12 = tested on: KM12
786-0 = tested on: 786-0
HT-29 = tested on: HT-29
NCI-H460 = tested on: NCI-H460
UACC-62 = tested on: UACC-62
SK-MEL-28 = tested on: SK-MEL-28

| SMILES | GI50 (Hs-578T) | GI50 (HOP-62) | GI50 (LOX IMVI) | GI50 (ACHN) | GI50 (UACC-257) | GI50 (OVCAR-3) | GI50 (Malme-3M) | GI50 (RPMI-8226) | GI50 (CAKI-1) | GI50 (NCI-H23) | GI50 (RXF 393) | GI50 (HCT-116) | GI50 (SNB-75) | GI50 (SF-295) | GI50 (KM12) | GI50 (786-0) | GI50 (HT-29) | GI50 (NCI-H460) | GI50 (UACC-62) | GI50 (SK-MEL-28) |
| --- | --- | --- | --- | --- | --- | --- | --- | --- | --- | --- | --- | --- | --- | --- | --- | --- | --- | --- | --- | --- |
| COc1ccc(OC)c(-c2cc(C(=O)O)c3cc4ccccc4cc3n2)c1 | > 100 µM (inactive) | > 100 µM (inactive) | > 100 µM (inactive) | > 100 µM (inactive) | > 100 µM (inactive) | > 100 µM (inactive) | > 100 µM (inactive) | > 100 µM (inactive) | > 100 µM (inactive) | > 100 µM (inactive) | > 100 µM (inactive) | > 100 µM (inactive) | > 100 µM (inactive) | > 100 µM (inactive) | > 100 µM (inactive) | > 100 µM (inactive) | > 100 µM (inactive) | > 100 µM (inactive) | > 100 µM (inactive) | > 100 µM (inactive) |
| CN(C)CCC(=O)N1C/C(=C/c2ccccc2)C(=O)/C(=C\c2ccccc2)C1 | 3.55 µM (inactive) | 7.31 µM (inactive) | 0.436 µM (active) | 2.01 µM (inactive) | 2.08 µM (inactive) | 2.59 µM (inactive) | 2.16 µM (inactive) | 0.134 µM (active) | 2.41 µM (inactive) | 2.29 µM (inactive) | 2.11 µM (inactive) | 0.447 µM (active) | 4.74 µM (inactive) | 2.93 µM (inactive) | 0.55 µM (active) | 1.49 µM (inactive) | 0.679 µM (active) | 2.33 µM (inactive) | 1.53 µM (inactive) | 1.58 µM (inactive) |
| NC1CCC(c2cc3ccccc3s2)(N2CCCCC2)CC1 (stereo not given) | 4.11 µM (inactive) | 1.35 µM (inactive) | 1.51 µM (inactive) | 3.41 µM (inactive) | 1.62 µM (inactive) | 1.27 µM (inactive) | 2.23 µM (inactive) | 0.817 µM (active) | 2.57 µM (inactive) | 1.64 µM (inactive) | 6.01 µM (inactive) | 1.69 µM (inactive) | 10.5 µM (inactive) | 2.64 µM (inactive) | 1.73 µM (inactive) | 1.5 µM (inactive) | 1.21 µM (inactive) | 1.63 µM (inactive) | 2.47 µM (inactive) | 1.58 µM (inactive) |
| CCCNC(=O)Cn1c(-c2ccccc2)cc2ccccc21 | 31.8 µM (inactive) | 67.3 µM (inactive) | > 100 µM (inactive) | 71.8 µM (inactive) | > 100 µM (inactive) | 91.8 µM (inactive) | 92 µM (inactive) | > 100 µM (inactive) | 52 µM (inactive) | 48 µM (inactive) | 18.5 µM (inactive) | 24.2 µM (inactive) | 25.9 µM (inactive) | 88.7 µM (inactive) | > 100 µM (inactive) | 54 µM (inactive) | 93.8 µM (inactive) | 92.3 µM (inactive) | 26.4 µM (inactive) | 92.3 µM (inactive) |
| COc1cc2c(c(OC)c1OC)-c1ccc(OC)c(=O)cc1C(NC(=O)c1ccc(N=[N+]=[N-])cc1)CC2 (stereo not given) | 0.084 µM (active) | 0.0413 µM (active) | 0.0423 µM (active) | 0.0809 µM (active) | 0.615 µM (active) | 0.0255 µM (active) | 0.608 µM (active) | 0.0359 µM (active) | 0.032 µM (active) | 0.0327 µM (active) | 0.0185 µM (active) | 0.0334 µM (active) | 0.766 µM (active) | 0.0246 µM (active) | 0.0234 µM (active) | 0.0446 µM (active) | 0.0288 µM (active) | 0.031 µM (active) | 0.0275 µM (active) | 0.789 µM (active) |
| N=C1C(=N)c2ccccc2-c2ccccc21 | 2.64 µM (inactive) | 1.67 µM (inactive) | 0.31 µM (active) | 1.41 µM (inactive) | 0.692 µM (active) | 0.354 µM (active) | 1.19 µM (inactive) | 0.959 µM (active) | 1.71 µM (inactive) | 0.6 µM (active) | 1.82 µM (inactive) | 0.384 µM (active) | 1.82 µM (inactive) | 1.62 µM (inactive) | 1.85 µM (inactive) | 2.09 µM (inactive) | 1.83 µM (inactive) | 1.38 µM (inactive) | 1.39 µM (inactive) | 1.35 µM (inactive) |
| CC(=O)OCC1OC(Nc2ccc3nc(C)n(-c4cccc(C)c4)c(=O)c3c2)C(OC(C)=O)C(OC(C)=O)C1OC(C)=O (stereo not given) | > 62.5 µM (inactive) | > 62.5 µM (inactive) | > 62.5 µM (inactive) | > 62.5 µM (inactive) | > 62.5 µM (inactive) | > 62.5 µM (inactive) | > 62.5 µM (inactive) | 36.4 µM (inactive) | > 62.5 µM (inactive) | > 62.5 µM (inactive) | > 62.5 µM (inactive) | > 62.5 µM (inactive) | > 62.5 µM (inactive) | > 62.5 µM (inactive) | > 62.5 µM (inactive) | > 62.5 µM (inactive) | > 62.5 µM (inactive) | > 62.5 µM (inactive) | > 62.5 µM (inactive) | > 62.5 µM (inactive) |
| O=C1CSC(=S)N1/N=C/c1ccc(Cl)c([N+](=O)[O-])c1 | 37.8 µM (inactive) | 30.6 µM (inactive) | 22.2 µM (inactive) | 23.3 µM (inactive) | 23.8 µM (inactive) | 20.1 µM (inactive) | 19.1 µM (inactive) | 21.5 µM (inactive) | 33.7 µM (inactive) | 17.9 µM (inactive) | 33.8 µM (inactive) | 23 µM (inactive) | 45 µM (inactive) | 24.8 µM (inactive) | 34.2 µM (inactive) | 38.6 µM (inactive) | 39.6 µM (inactive) | 41.3 µM (inactive) | 25.9 µM (inactive) | 27.5 µM (inactive) |
| O=C(O)CCC(=O)c1ccc2ccc3cccc4ccc1c2c34 | > 100 µM (inactive) | 84.5 µM (inactive) | 71.8 µM (inactive) | 52.7 µM (inactive) | 33 µM (inactive) | 53.7 µM (inactive) | > 100 µM (inactive) | 63 µM (inactive) | > 100 µM (inactive) | > 100 µM (inactive) | 46.5 µM (inactive) | 65.8 µM (inactive) | > 100 µM (inactive) | 70.6 µM (inactive) | 55.2 µM (inactive) | 68.9 µM (inactive) | 63.8 µM (inactive) | 39.3 µM (inactive) | > 100 µM (inactive) | 87.3 µM (inactive) |
| CC1NC(=O)[C@H](C)N(C)C(=O)[C@@H]2CCCN2C(=O)[C@@H](NC(=O)C(Cc2ccccc2)NC(=O)/C=C/C=C/C=C/C=C/C=C/C(=O)NC2=C(O)CCC2=O)COC(=O)[C@@H]2C[C@@H](C)CN2C1=O (stereo partly drawn) (X28-[ξF]SP[NMeA][ξA][Pro(4R-Me)]; ester 2-C) | > 100 µM (inactive) | > 100 µM (inactive) | > 100 µM (inactive) | > 100 µM (inactive) | > 100 µM (inactive) | > 100 µM (inactive) | > 100 µM (inactive) | > 100 µM (inactive) | > 100 µM (inactive) | > 100 µM (inactive) | > 100 µM (inactive) | > 100 µM (inactive) | > 100 µM (inactive) | > 100 µM (inactive) | > 100 µM (inactive) | > 100 µM (inactive) | > 100 µM (inactive) | > 100 µM (inactive) | > 100 µM (inactive) | > 100 µM (inactive) |
